According to DBAASP:
In brackets after ≈: the same amount, converted by molar mass. One block for each molecule: values may come before it.

Tests used:
Experiment in all cases: ≥ marks a high value that may be exact or a test limit, other limits are often not marked, values filed in µg/mL are converted to µM
Nocardia asteroides = system: Nocardia asteroides
[1] = system: Staphylococcus aureus ATCC 25923
[2] = system: Psychrobacter faecalis X29
[3] = system: Enterococcus faecalis 981
Candida glabrata 090902 = system: Candida glabrata 090902
[4] = system: Acinetobacter calcoaceticus Ac11
[5] = system: Salmonella typhimurium SL1344
[6] = system: Salmonella enterica subsp. enterica serovar Typhimurium LT2
[7] = system: Staphylococcus aureus ATCC 29213
[8] = system: Escherichia coli ATCC 25922
[9] = system: Enterococcus faecalis ATCC 29212
[10] = system: Staphylococcus aureus ATCC 33591
Escherichia coli D21 = system: Escherichia coli D21
[11] = system: Escherichia coli ATCC BAA-3051
[12] = system: Bacillus subtilis ATCC 6051
Bacillus megaterium Bm11 = system: Bacillus megaterium Bm11
[13] = system: Pseudomonas aeruginosa ATCC 27853
[14] = system: Micrococcus luteus ATCC 9341
[15] = system: Staphylococcus aureus 1303
Escherichia coli 1334 = system: Escherichia coli 1334
[16] = system: Cutibacterium acnes ATCC 11827
[17] = system: Staphylococcus aureus 1349
Escherichia coli 1342 = system: Escherichia coli 1342
[18] = system: Staphylococcus aureus ATCC 2592
[19] = system: Candida albicans ATCC 2002
Candida glabrata 0902 = system: Candida glabrata 0902
[20] = system: Staphylococcus epidermidis
Staphylococcus aureus = system: Staphylococcus aureus
[21] = system: Pseudomonas aeruginosa 1411
[22] = system: Pseudomonas aeruginosa 1413
[23] = system: Pseudomonas aeruginosa 1412
Escherichia coli W160-37 = system: Escherichia coli W160-37
[24] = system: Candida albicans ATCC 37092

- MIC (Nocardia asteroides): 12.5 µM (≈ 17 µg/mL)
- MIC [1]: 12.5 µM (≈ 17 µg/mL)
- MIC [2]: ≥ 200 µM
- MIC [3]: 25 µM (≈ 34.1 µg/mL)
- MIC (Candida glabrata 090902): ≥ 100 µM
Structure (SMILES): CC[C@H](C)[C@H](NC(=O)[C@H](CC(C)C)NC(=O)CNC(=O)[C@@H](NC(=O)[C@@H](NC(=O)[C@@H](N)Cc1ccccc1)[C@@H](C)CC)[C@@H](C)O)C(=O)N[C@@H](CO)C(=O)NCC(=O)N[C@@H](CC(C)C)C(=O)N[C@@H](CCSC)C(=O)N[C@@H](CCCCN)C(=O)N[C@@H](C)C(=O)N[C@@H](CC(C)C)C(N)=O [FITGLISGLMKAL]

- MIC [4]: ≥ 100 µM
- MIC [5]: ≥ 52.9 µM
- MIC [6]: ≥ 100 µM
- MIC [7]: 3.3 µM (≈ 7.94 µg/mL)
- MIC [8]: 13.2 µM (≈ 31.9 µg/mL)
- MIC [9]: 3.3 µM (≈ 7.94 µg/mL)
- MIC [10]: 3.3 µM (≈ 7.94 µg/mL)
- MIC (Escherichia coli D21): ≥ 100 µM
- MIC [11]: 13.2 µM (≈ 31.9 µg/mL)
- MIC [12]: 20 µM (≈ 48.1 µg/mL)
- MIC (Bacillus megaterium Bm11): 6.2 µM (≈ 14.9 µg/mL)
- MIC [13]: > 100 µM
- MIC [14]: ≥ 100 µM
Structure (SMILES): CC[C@H](C)[C@H](N=C(O)[C@H](CC(C)C)N=C(O)[C@H](C)N=C(O)[C@H](Cc1ccccc1)N=C(O)[C@H](Cc1ccccc1)N=C(O)CN)C(=O)N1CCC[C@H]1C(O)=N[C@@H](CCCCN)C(O)=N[C@H](C(O)=N[C@H](C(O)=N[C@@H](CO)C(O)=N[C@@H](CO)C(=O)N1CCC[C@H]1C(O)=N[C@@H](CC(C)C)C(O)=N[C@@H](Cc1ccccc1)C(O)=N[C@@H](CCCCN)C(O)=N[C@H](C(O)=N[C@@H](CC(C)C)C(O)=N[C@@H](CC(C)C)C(O)=N[C@@H](CO)C(O)=N[C@@H](C)C(O)=N[C@H](C(O)=NCCN)C(C)C)[C@@H](C)O)[C@@H](C)CC)[C@@H](C)CC [GFFALIPKIISSPLFKTLLSAV]

- MIC [15]: 4.54 µM (≈ 14.2 µg/mL)
- MIC (Escherichia coli 1334): 4.54 µM (≈ 14.2 µg/mL)
- MIC [16]: 18.2 µM (≈ 57 µg/mL)
- MIC [17]: 9.08 µM (≈ 28.5 µg/mL)
- MIC [8]: 2.27 µM (≈ 7.11 µg/mL)
- MIC (Escherichia coli 1342): 9.08 µM (≈ 28.5 µg/mL)
- MIC [18]: 2.27 µM (≈ 7.11 µg/mL)
- MIC [19]: 1.13 µM (≈ 3.54 µg/mL)
- MIC (Candida glabrata 0902): 4.54 µM (≈ 14.2 µg/mL)
- MIC [20]: 4.54 µM (≈ 14.2 µg/mL)
- MIC (Staphylococcus aureus): 2.27 µM (≈ 7.11 µg/mL)
- MIC [21]: 4.54 µM (≈ 14.2 µg/mL)
- MIC [22]: 4.54 µM (≈ 14.2 µg/mL)
- MIC [13]: 4.54 µM (≈ 14.2 µg/mL)
- MIC [23]: 9.08 µM (≈ 28.5 µg/mL)
Structure (SMILES): CC[C@H](C)[C@H](NC(=O)[C@H](Cc1cnc[nH]1)NC(=O)[C@H](CO)NC(=O)CNC(=O)[C@H](CO)NC(=O)CNC(=O)[C@@H](NC(=O)[C@H](CO)NC(=O)[C@H](CCCN=C(N)N)NC(=O)[C@H](CC(C)C)NC(=O)[C@H](CCCCN)NC(=O)[C@H](CCC(N)=O)NC(=O)[C@H](CCCCN)NC(=O)[C@H](CC(C)C)NC(=O)[C@H](CCC(N)=O)NC(=O)[C@@H]1CSSC[C@H](NC(=O)[C@H](CCCCN)NC(=O)CN)C(=O)N[C@@H](CC(N)=O)C(=O)N[C@@H](C(C)C)C(=O)N[C@@H](CC(C)C)C(=O)N1)[C@@H](C)CC)C(=O)NCC(=O)N[C@@H](CO)C(=O)N[C@H](C(=O)N[C@H](C(=O)N[C@@H](CC(C)C)C(=O)N1CCC[C@H]1C(=O)N[C@@H](CCCN=C(N)N)C(=O)NCC(=O)O)C(C)C)C(C)C [GKCNVLCQLKQKLRSIGSGSHIGSVVLPRG]

- MIC (Escherichia coli W160-37): 24 µM (≈ 34.3 µg/mL)
- MIC (Staphylococcus aureus): 14 µM (≈ 20 µg/mL)
Structure (SMILES): CC[C@H](C)[C@H](NC(=O)[C@H](Cc1c[nH]c2ccccc12)NC(=O)[C@H](CCCCN)NC(=O)[C@H](CO)NC(=O)[C@H](CC(C)C)NC(=O)[C@H](Cc1ccccc1)NC(=O)[C@H](CCCCN)NC(=O)[C@H](CC(C)C)NC(=O)[C@H](CC(C)C)NC(=O)[C@H](CCCCN)NC(=O)[C@@H]1CCCN1)C(=O)NCC(=O)O [PKLLKFLSKWIG]

- MIC [7]: > 500 µM
- MIC [8]: > 500 µM
- MIC [24]: ≥ 500 µM
Structure (SMILES): CC[C@H](C)[C@H](NC(=O)[C@H](CCCN=C(N)N)NC(=O)[C@@H](N)CCCN=C(N)N)C(=O)N[C@@H](CCCN=C(N)N)C(=O)N1CCC[C@H]1C(=O)N[C@@H](CCCN=C(N)N)C(=O)N1CCC[C@H]1C(=O)O [RRIRPRP]
